Experiments:
[1] = Solubility of Compound-I drug substance; format: physicochemical
Text: The embodiments provide three formulations of Compound-I or its free base—the Formula II compound.

FGFR-4 = FGFR-4 (Homo sapiens (Human), UniProt P22455); assay: In vitro inhibition of tyrosine kinases; format: biochemical
KDR (VEGFR-2) = KDR (VEGFR-2) (Homo sapiens (Human), UniProt P35968); assay: In vitro inhibition of tyrosine kinases; format: biochemical; details: 300 nM (170.67 ng/mL)
KDR (VEGFR-2), sequence (P35968 20-1356): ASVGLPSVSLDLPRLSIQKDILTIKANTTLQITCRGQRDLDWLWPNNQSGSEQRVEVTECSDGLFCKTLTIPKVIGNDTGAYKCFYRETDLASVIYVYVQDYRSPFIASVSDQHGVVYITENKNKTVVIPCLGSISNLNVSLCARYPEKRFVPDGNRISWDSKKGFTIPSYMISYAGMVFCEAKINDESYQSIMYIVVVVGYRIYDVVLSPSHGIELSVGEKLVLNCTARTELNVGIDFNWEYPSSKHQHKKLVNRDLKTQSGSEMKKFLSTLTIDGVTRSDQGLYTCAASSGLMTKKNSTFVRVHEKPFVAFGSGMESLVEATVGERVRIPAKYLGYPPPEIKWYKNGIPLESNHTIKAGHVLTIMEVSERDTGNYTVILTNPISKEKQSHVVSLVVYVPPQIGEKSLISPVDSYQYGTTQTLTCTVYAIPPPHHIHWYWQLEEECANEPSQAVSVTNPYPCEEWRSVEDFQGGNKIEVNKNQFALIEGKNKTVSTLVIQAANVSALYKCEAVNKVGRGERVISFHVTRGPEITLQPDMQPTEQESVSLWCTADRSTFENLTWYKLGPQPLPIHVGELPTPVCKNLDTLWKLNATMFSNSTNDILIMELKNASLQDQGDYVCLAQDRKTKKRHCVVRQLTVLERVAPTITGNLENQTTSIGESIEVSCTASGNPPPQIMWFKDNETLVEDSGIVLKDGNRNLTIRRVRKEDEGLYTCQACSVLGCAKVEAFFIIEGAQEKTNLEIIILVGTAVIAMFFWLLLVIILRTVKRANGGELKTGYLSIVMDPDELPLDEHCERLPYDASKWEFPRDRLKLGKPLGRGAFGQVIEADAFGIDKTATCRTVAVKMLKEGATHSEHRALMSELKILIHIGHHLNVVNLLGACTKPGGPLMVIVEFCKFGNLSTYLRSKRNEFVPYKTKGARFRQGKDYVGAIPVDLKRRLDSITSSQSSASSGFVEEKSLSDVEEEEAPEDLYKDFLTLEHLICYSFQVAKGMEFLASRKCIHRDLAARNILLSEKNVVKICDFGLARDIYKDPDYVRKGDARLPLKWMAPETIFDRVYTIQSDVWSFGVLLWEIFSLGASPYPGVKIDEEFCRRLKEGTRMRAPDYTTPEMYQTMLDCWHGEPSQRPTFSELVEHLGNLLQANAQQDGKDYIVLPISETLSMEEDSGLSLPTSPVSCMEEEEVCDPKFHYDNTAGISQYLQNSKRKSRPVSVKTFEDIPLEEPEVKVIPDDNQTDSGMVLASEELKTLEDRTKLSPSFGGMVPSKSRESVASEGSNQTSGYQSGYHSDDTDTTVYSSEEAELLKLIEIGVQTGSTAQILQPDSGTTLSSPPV

FGFR-4, sequence (P22455 22-802): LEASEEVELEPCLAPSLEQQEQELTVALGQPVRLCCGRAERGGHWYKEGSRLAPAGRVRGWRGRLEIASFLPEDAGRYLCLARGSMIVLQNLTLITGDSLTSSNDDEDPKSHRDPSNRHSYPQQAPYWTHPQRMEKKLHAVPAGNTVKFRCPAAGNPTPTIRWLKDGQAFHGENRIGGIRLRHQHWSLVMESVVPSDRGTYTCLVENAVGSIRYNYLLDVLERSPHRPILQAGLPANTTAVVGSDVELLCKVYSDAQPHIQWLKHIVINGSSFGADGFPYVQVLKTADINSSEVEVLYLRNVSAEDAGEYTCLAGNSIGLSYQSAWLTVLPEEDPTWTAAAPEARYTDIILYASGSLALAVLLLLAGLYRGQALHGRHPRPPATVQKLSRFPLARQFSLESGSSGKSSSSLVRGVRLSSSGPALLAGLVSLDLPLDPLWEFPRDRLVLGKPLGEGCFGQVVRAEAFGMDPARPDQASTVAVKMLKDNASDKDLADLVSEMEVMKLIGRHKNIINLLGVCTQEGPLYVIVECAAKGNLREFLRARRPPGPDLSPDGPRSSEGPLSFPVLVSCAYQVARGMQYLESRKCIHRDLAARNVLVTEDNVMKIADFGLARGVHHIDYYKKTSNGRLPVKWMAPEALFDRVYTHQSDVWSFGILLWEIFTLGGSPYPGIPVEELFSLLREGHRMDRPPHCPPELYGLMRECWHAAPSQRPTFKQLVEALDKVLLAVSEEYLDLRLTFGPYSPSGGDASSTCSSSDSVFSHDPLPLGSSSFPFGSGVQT

Cl.NC(=O)c1c(OCc2c(F)cc(Br)cc2F)nsc1NC(=O)NCCCCN1CCCC1 [Compound-I, 3-[(4-bromo-2,6-difluorophenyl)methoxy]-5-[[[[4-(1-pyrrolidinyl)butyl]amino]carbonyl]amino]-4-isothiazolecarboxamide hydrochloride]
solubility ([1]; 0.1N HCl, simulated gastric fluid): 40 µg/mL
solubility ([1]; 0.1N NaOH, aqueous buffer): 50 µg/mL
solubility ([1]; acetonitrile, organic solvent or mixture): 40 µg/mL
solubility ([1]; aqueous buffer, pH 7.5 (0.05M NaH2PO4)): 1000 µg/mL
solubility ([1]; aqueous buffer, pH 9.0 (0.05m Na2HPO4)): 700 µg/mL
solubility ([1]; deionized water, water): 500 to 1200 µg/mL
solubility ([1]; ethanol, organic solvent or mixture): 700 µg/mL
solubility ([1]; hexanes, organic solvent or mixture): < 10 µg/mL
solubility ([1]; methanol, organic solvent or mixture): 4300 µg/mL
solubility ([1]; tetrahydrofuran, organic solvent or mixture): 20 µg/mL
IC50, FGFR-4 (FGFR-4; 10-point titration curve): (284.45) ng/mL
IC50 (FGFR-4; 10-point titration curve (257 nM-5000 nM)): 500 nM
Mean % Inhibition at 300 nM Compound-I, KDR (VEGFR-2) (KDR (VEGFR-2)): completely inhibited

— patent publication US9446026B2, “Ocular formulations for drug-delivery to the posterior segment of the eye” (PanOptica, Inc., priority 2013, dated 2016)
